Test results reported in patent publication US20100010219A1, “METHOD FOR PRODUCING PYRROLIDINE COMPOUND” (JAPAN TOBACCO INC., priority 2006, published 2010).
Structures can show the parent of a compound that is named as a salt.

Molecular target: T1, human HSD-1 (recombinant HSD-1) (Homo sapiens, UniProt P28845)
T1 construct: made in house
Assay: HSD-1 activity inhibitory action in vitro (SPA, conversion of cortisone to cortisol)
Type: biochemical
Conditions: recombinant human HSD-1 expressed using baculovirus system; 10 nM 3H cortisone, 500 μM NADPH; room temperature 90 to 120 min; read-out: hHSD1 (IC50 (nM))

T1 sequence (P28845 whole entry): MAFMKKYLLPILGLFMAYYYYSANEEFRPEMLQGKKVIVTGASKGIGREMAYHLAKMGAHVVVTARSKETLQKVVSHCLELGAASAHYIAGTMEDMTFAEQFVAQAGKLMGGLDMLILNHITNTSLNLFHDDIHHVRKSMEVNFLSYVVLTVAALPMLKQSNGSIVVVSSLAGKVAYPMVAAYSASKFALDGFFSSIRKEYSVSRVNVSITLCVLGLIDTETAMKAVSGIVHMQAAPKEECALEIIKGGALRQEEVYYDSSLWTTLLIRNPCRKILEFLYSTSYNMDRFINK

Structure (SMILES)	IC50
CC(=O)N1CCC[C@H]1C(=O)N1CCC(n2ncc(C(=O)N3CC[C@@H](c4ccccc4C(F)(F)F)C3)c2C2CC2)CC1 [Example 89, 1-(1-{1-[(S)-1-acetylpyrrolidine-2-carbonyl]piperidin-4-yl}-5-cyclopropyl-1H-pyrazole-4-carbonyl)-[(S)-3-(2-trifluoromethylphenyl)]pyrrolidine]	< 30 nM
CS(=O)(=O)NCC(=O)N1CCC(n2ncc(C(=O)N3CC[C@@H](c4ccccc4C(F)(F)F)C3)c2C2CC2)CC1 [Example 90, 1-{5-cyclopropyl-1-[1-(2-methanesulfonylaminoacetyl)piperidin-4-yl]-1H-pyrazole-4-carbonyl}-[(S)-3-(2-trifluoromethylphenyl)]pyrrolidine]	< 30 nM
CC(=O)N1CCC(C(=O)N2CCC(n3ncc(C(=O)N4CC[C@@H](c5ccccc5C(F)(F)F)C4)c3C3CC3)CC2)CC1 [Example 91, 1-{1-[1-(1-acetylpiperidine-4-carbonyl)piperidin-4-yl]-5-cyclopropyl-1H-pyrazole-4-carbonyl}-[(S)-3-(2-trifluoromethylphenyl)]pyrrolidine]	< 30 nM
NC(=O)CCC(=O)N1CCC(n2ncc(C(=O)N3CC[C@@H](c4ccccc4C(F)(F)F)C3)c2C2CC2)CC1 [Example 93, 1-{1-[1-(3-carbamoylpropionyl)piperidin-4-yl]-5-cyclopropyl-1H-pyrazole-4-carbonyl}-[(S)-3-(2-trifluoromethylphenyl)]pyrrolidine]	< 30 nM
NC(=O)CN1CCC(n2ncc(C(=O)N3CC[C@@H](c4ccccc4C(F)(F)F)C3)c2C2CC2)CC1 [Example 94, 1-[1-(1-carbamoylmethylpiperidin-4-yl)-5-cyclopropyl-1H-pyrazole-4-carbonyl]-[(S)-3-(2-trifluoromethylphenyl)]pyrrolidine hydrochloride]	< 30 nM
CNC(=O)CN1CCC(n2ncc(C(=O)N3CC[C@@H](c4ccccc4C(F)(F)F)C3)c2C2CC2)CC1 [Example 95, 1-[5-cyclopropyl-1-(1-methylcarbamoylmethylpiperidin-4-yl)-1H-pyrazole-4-carbonyl]-[(S)-3-(2-trifluoromethylphenyl)]pyrrolidine hydrochloride]	< 30 nM
CC(C)(C(N)=O)N1CCC(n2ncc(C(=O)N3CC[C@@H](c4ccccc4C(F)(F)F)C3)c2C2CC2)CC1 [Example 96, 1-{1-[1-(1-carbamoyl-1-methylethyl)piperidin-4-yl]-5-cyclopropyl-1H-pyrazole-4-carbonyl}-[(S)-3-(2-trifluoromethylphenyl)]pyrrolidine hydrochloride]	< 30 nM
NC(=O)CCN1CCC(n2ncc(C(=O)N3CC[C@@H](c4ccccc4C(F)(F)F)C3)c2C2CC2)CC1 [Example 97, 1-{1-[1-(2-carbamoylethyl)piperidin-4-yl]-5-cyclopropyl-1H-pyrazole-4-carbonyl}-[(S)-3-(2-trifluoromethylphenyl)]pyrrolidine hydrochloride]	< 30 nM
O=C(c1cnn(C2CCN(C3CC3)CC2)c1C1CC1)N1CC[C@@H](c2ccccc2C(F)(F)F)C1 [Example 99, 1-[5-cyclopropyl-1-(1-cyclopropylpiperidin-4-yl)-1H-pyrazole-4-carbonyl]-[(S)-3-(2-trifluoromethylphenyl)]pyrrolidine hydrochloride]	< 30 nM
CN(C)C(=O)CN1CCC(n2ncc(C(=O)N3CC[C@@H](c4ccccc4C(F)(F)F)C3)c2C2CC2)CC1 [Example 100, 1-[5-cyclopropyl-1-(1-dimethylcarbamoylmethylpiperidin-4-yl)-1H-pyrazole-4-carbonyl]-[(S)-3-(2-trifluoromethylphenyl)]pyrrolidine hydrochloride]	< 30 nM
CC(C(N)=O)N1CCC(n2ncc(C(=O)N3CC[C@@H](c4ccccc4C(F)(F)F)C3)c2C2CC2)CC1 (stereo partly drawn) [Example 103, 1-{1-[1-(1-carbamoylethyl)piperidin-4-yl]-5-cyclopropyl-1H-pyrazole-4-carbonyl}-[(S)-3-(2-trifluoromethylphenyl)]pyrrolidine hydrochloride]	< 30 nM

More lines, now with the values ahead:

IC50	Structure (SMILES)
< 30 nM	CC(C)(CN1CCC(n2ncc(C(=O)N3CC[C@@H](c4ccccc4C(F)(F)F)C3)c2C2CC2)CC1)C(N)=O [Example 105, 1-{1-[1-(2-carbamoyl-2-methylpropyl)piperidin-4-yl]-5-cyclopropyl-1H-pyrazole-4-carbonyl}-[(S)-3-(2-trifluoromethylphenyl)]pyrrolidine hydrochloride]
< 30 nM	NC(=O)C1(CN2CCC(n3ncc(C(=O)N4CC[C@@H](c5ccccc5C(F)(F)F)C4)c3C3CC3)CC2)CC1 [Example 106, 1-{1-[1-(1-carbamoylcyclopropylmethyl)piperidin-4-yl]-5-cyclopropyl-1H-pyrazole-4-carbonyl}-[(S)-3-(2-trifluoromethylphenyl)]pyrrolidine hydrochloride]
< 30 nM	O=C(c1cnn(C2CCN(CC3(C(=O)NCCO)CC3)CC2)c1C1CC1)N1CC[C@@H](c2ccccc2C(F)(F)F)C1 [Example 107, 1-(5-cyclopropyl-1-{1-[1-(2-hydroxyethylcarbamoyl)cyclopropylmethyl]piperidin-4-yl}-1H-pyrazole-4-carbonyl)-[(S)-3-(2-trifluoromethylphenyl)]pyrrolidine hydrochloride]
< 30 nM	O=C(c1cnn(C2CCN(S(=O)(=O)C(F)(F)F)CC2)c1C1CC1)N1CC[C@@H](c2ccccc2C(F)(F)F)C1 [Example 108, 1-[5-cyclopropyl-1-(1-trifluoromethanesulfonylpiperidin-4-yl)-1H-pyrazole-4-carbonyl]-[(S)-3-(2-trifluoromethylphenyl)]pyrrolidine]
< 30 nM	O=C(c1cnn(C2CCN(S(=O)(=O)CC(F)(F)F)CC2)c1C1CC1)N1CC[C@@H](c2ccccc2C(F)(F)F)C1 [Example 109, 1-{5-cyclopropyl-1-[1-(2,2,2-trifluoroethanesulfonyl)piperidin-4-yl]-1H-pyrazole-4-carbonyl}-[(S)-3-(2-trifluoromethylphenyl)]pyrrolidine]
< 30 nM	C/C(=N\C#N)N1CCC(n2ncc(C(=O)N3CC[C@@H](c4ccccc4C(F)(F)F)C3)c2C2CC2)CC1 [Example 110, 1-{1-[1-(1-cyanoiminoethyl)piperidin-4-yl]-5-cyclopropyl-1H-pyrazole-4-carbonyl}-[(S)-3-(2-trifluoromethylphenyl)]pyrrolidine]
< 30 nM	CN/C(=N\C#N)N1CCC(n2ncc(C(=O)N3CC[C@@H](c4ccccc4C(F)(F)F)C3)c2C2CC2)CC1 [Example 111, 1-(1-{1-[cyanoimino(methylamino)methyl]piperidin-4-yl}-5-cyclopropyl-1H-pyrazole-4-carbonyl)-[(S)-3-(2-trifluoromethylphenyl)]pyrrolidine]
< 30 nM	N#C/N=C(\N)N1CCC(n2ncc(C(=O)N3CC[C@@H](c4ccccc4C(F)(F)F)C3)c2C2CC2)CC1 [Example 112, 1-{1-[1-(N-cyanocarbamimidoyl)piperidin-4-yl]-5-cyclopropyl-1H-pyrazole-4-carbonyl}-[(S)-3-(2-trifluoromethylphenyl)]pyrrolidine]
< 30 nM	O=C(O)c1ccc(N2CCC(n3ncc(C(=O)N4CCC(c5ccccc5C(F)(F)F)C4)c3C3CC3)CC2)cc1 (stereo not drawn) [Example 113, 4-(4-{5-cyclopropyl-4-[3-(2-trifluoromethylphenyl)pyrrolidine-1-carbonyl]pyrazol-1-yl}piperidin-1-yl)benzoic acid]
< 30 nM	O=C(O)c1cccc(N2CCC(n3ncc(C(=O)N4CCC(c5ccccc5C(F)(F)F)C4)c3C3CC3)CC2)c1 (stereo not drawn) [Example 114, 3-(4-{5-cyclopropyl-4-[3-(2-trifluoromethylphenyl)pyrrolidine-1-carbonyl]pyrazol-1-yl}piperidin-1-yl)benzoic acid]
< 30 nM	O=C(O)c1ccc(N2CCC(n3ncc(C(=O)N4CCC(c5ccccc5C(F)(F)F)C4)c3C3CC3)CC2)s1 (stereo not drawn) [Example 115, 5-(4-{5-cyclopropyl-4-[3-(2-trifluoromethylphenyl)pyrrolidine-1-carbonyl]pyrazol-1-yl}piperidin-1-yl)thiophene-2-carboxylic acid]
< 30 nM	O=C(O)c1csc(N2CCC(n3ncc(C(=O)N4CCC(c5ccccc5C(F)(F)F)C4)c3C3CC3)CC2)n1 (stereo not drawn) [Example 116, 2-(4-{5-cyclopropyl-4-[3-(2-trifluoromethylphenyl)pyrrolidine-1-carbonyl]pyrazol-1-yl}piperidin-1-yl)thiazole-4-carboxylic acid]
< 30 nM	Cc1nc(N2CCC(n3ncc(C(=O)N4CC[C@@H](c5ccccc5C(F)(F)F)C4)c3C3CC3)CC2)n[nH]1 [Example 117, 1-{5-cyclopropyl-1-[1-(5-methyl-4H-[1,2,4]triazol-3-yl)piperidin-4-yl]-1H-pyrazole-4-carbonyl}-[(S)-3-(2-trifluoromethylphenyl)]pyrrolidine hydrochloride]
< 30 nM	O=C(c1cnn(C2CCN(c3n[nH]c(C4CC4)n3)CC2)c1C1CC1)N1CC[C@@H](c2ccccc2C(F)(F)F)C1 [Example 118, 1-{5-cyclopropyl-1-[1-(5-cyclopropyl-4H-[1,2,4]triazol-3-yl)piperidin-4-yl]-1H-pyrazole-4-carbonyl}-[(S)-3-(2-trifluoromethylphenyl)]pyrrolidine hydrochloride]
< 30 nM	O=C(c1cnn(C2CCN(c3n[nH]c(CO)n3)CC2)c1C1CC1)N1CC[C@@H](c2ccccc2C(F)(F)F)C1 [Example 119, 1-{5-cyclopropyl-1-[1-(5-hydroxymethyl-4H-[1,2,4]triazol-3-yl)piperidin-4-yl]-1H-pyrazole-4-carbonyl}-[(S)-3-(2-trifluoromethylphenyl)]pyrrolidine hydrochloride]
< 30 nM	O=C(c1cnn(C2CCN(c3n[nH]c(C(F)(F)F)n3)CC2)c1C1CC1)N1CC[C@@H](c2ccccc2C(F)(F)F)C1 [Example 120, 1-{5-cyclopropyl-1-[1-(5-trifluoromethyl-4H-[1,2,4]triazol-3-yl)piperidin-4-yl]-1H-pyrazole-4-carbonyl}-[(S)-3-(2-trifluoromethylphenyl)]pyrrolidine hydrochloride]
